Experimental findings from patent US10865208B2, “ATG7 inhibitors and the uses thereof” (Millennium Pharmaceuticals, Inc., priority 2016, dated 2020) are described below.

The IC50 is the midpoint of a concentration-inhibition curve. As usually defined, the inhibition is the relative decrease from the control value, in per cent.

The target in the assay is recombinant human His-ATG7 enzyme (Homo sapiens (Human), UniProt O95352). The assay is described as follows: ATG7 Enzyme Assay (HTRF/FRET, ATG3-GST and Flag-Gabarap). The class given is biochemical. Conditions: for inhibition at 0.123 µM: Concentration 0.123 μM; for inhibition at 0.123 µM / inhibition at 0.111 µM: read-out: Percent Inhibition; for inhibition at 0.111 µM: Concentration 0.111 μM. On the procedure: Example 97: ATG7 Enzyme Assay
Sequence of recombinant human His-ATG7 enzyme (O95352 whole entry): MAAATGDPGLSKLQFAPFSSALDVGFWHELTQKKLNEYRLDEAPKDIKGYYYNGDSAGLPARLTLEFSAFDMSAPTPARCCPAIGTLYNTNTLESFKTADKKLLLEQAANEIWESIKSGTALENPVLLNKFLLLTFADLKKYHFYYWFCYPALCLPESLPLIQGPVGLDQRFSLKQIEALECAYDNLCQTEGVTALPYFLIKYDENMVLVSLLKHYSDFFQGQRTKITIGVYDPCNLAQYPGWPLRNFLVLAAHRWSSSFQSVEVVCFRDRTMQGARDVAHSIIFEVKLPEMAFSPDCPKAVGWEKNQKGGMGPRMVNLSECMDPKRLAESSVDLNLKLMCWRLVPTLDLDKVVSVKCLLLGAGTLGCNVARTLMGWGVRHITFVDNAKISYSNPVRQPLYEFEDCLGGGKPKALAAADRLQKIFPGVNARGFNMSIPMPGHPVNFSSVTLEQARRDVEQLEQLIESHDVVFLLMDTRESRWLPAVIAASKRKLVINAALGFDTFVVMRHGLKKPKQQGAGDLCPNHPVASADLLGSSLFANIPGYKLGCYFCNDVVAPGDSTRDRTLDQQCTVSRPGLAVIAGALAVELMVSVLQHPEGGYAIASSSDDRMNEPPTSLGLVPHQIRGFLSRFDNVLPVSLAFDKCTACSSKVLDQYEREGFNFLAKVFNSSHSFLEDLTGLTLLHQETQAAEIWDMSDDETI
The total volume of the ATG7 enzymatic assay is 50 μL and contains 50 mM HEPES Hemisodium (pH 7.5), 0.05% BSA, 0.01% Tween-20, 25 mM NaCl, 5 mM MgCl2, 10 μM ATP, 250 μM GSH, 5 nM ATG3-GST, 5 nM Flag-Gabarap, 100 μM TCEP and 0.15 nM recombinant human His-ATG7 enzyme. The enzymatic reaction mixture, with and without inhibitor, was incubated at 24° C. for 105 min in a 384-well plate before termination with […] of Stop/Detection buffer (0.1M HEPES Hemisodium pH 7.5, 0.05% Tween20, 20 mM EDTA, 410 mM KF, 0.53 nM Europium-Cryptate labeled monoclonal anti-Flag M2 Antibody (CisBio International) and 8.125 μg/ml PHYCOLINK goat anti-GST allophycocyanin (XL-APC) antibody (Prozyme)). After incubation for 2 hours at 24° C., quantification of FRET is performed on the Pherostar™ (BMG Labtech). Percentage inhibition values at a single concentration or enzyme inhibition (IC50) values are determined from those curves. One skilled in the art will appreciate that the values generated either as percentage inhibition at a single concentration or IC50 values are subject to experimental variation.
(Time-resolved FRET reads energy transfer from a long-lived donor to a nearby acceptor.)

SMILES strings stand for the structures.

Take `Nc1ncnc2c1c(SCCc1ccccc1)nn2[C@@H]1O[C@H](COS(N)(=O)=O)[C@@H](O)[C@H]1O` [Compound I-88, [(2R,3S,4R,5R)-5-{4-amino-3-[(2-phenylethyl)sulfanyl]-1H-pyrazolo[3,4-d]pyrimidin-1-yl}-3,4-dihydroxytetrahydrofuran-2-yl]methyl sulfamate]: the half-inhibitory concentration (IC50) is 20 to 50 nM and the inhibition at 0.123 µM is 78%.

Take `CC(C)(C)Sc1nn([C@@H]2O[C@H](COS(N)(=O)=O)[C@@H](O)[C@@H]2F)c2ncnc(N)c12` [Compound I-118, {(2R,3R,4S,5R)-5-[4-amino-3-(tert-butylsulfanyl)-1H-pyrazolo[3,4-d]pyrimidin-1-yl]-4-fluoro-3-hydroxytetrahydrofuran-2-yl}methyl sulfamate]: the IC50 was < 20 nM and the inhibition at 0.111 µM stood at 86%.

On to `Nc1ncnc2c1c(SCC1CC(F)(F)C1)nn2[C@@H]1O[C@H](COS(N)(=O)=O)[C@@H](O)[C@@H]1F` [Compound I-97, [(2R,3R,4S,5R)-5-(4-amino-3-{[(3,3-difluorocyclobutyl)methyl]sulfanyl}-1H-pyrazolo[3,4-d]pyrimidin-1-yl)-4-fluoro-3-hydroxytetrahydrofuran-2-yl]methyl sulfamate], for which the IC50 lay within 20 to 50 nM and the inhibition at 0.111 µM was 66%.

As for `N#Cc1cccc(Sc2nn([C@@H]3O[C@H](COS(N)(=O)=O)[C@@H](O)[C@@H]3F)c3ncnc(N)c23)c1` [Compound I-153, [(2R,3R,4S,5R)-5-{4-amino-3-[(3-cyanophenyl)sulfanyl]-1H-pyrazolo[3,4-d]pyrimidin-1-yl}-4-fluoro-3-hydroxytetrahydrofuran-2-yl]methyl sulfamate], the IC50 was in the range of 50 to 100 nM and the inhibition at 0.111 µM is 58%.

Take `CCC(CC)Sc1nn([C@@H]2O[C@H](COS(N)(=O)=O)[C@@H](O)[C@@H]2F)c2ncnc(N)c12` [Compound I-120, {(2R,3R,4S,5R)-5-[4-amino-3-(pentan-3-ylsulfanyl)-1H-pyrazolo[3,4-d]pyrimidin-1-yl]-4-fluoro-3-hydroxytetrahydrofuran-2-yl}methyl sulfamate]: the IC50 is 100 to 500 nM and the inhibition at 0.111 µM was found to be 46%.

As to `COc1nn([C@@H]2O[C@H](COS(N)(=O)=O)[C@@H](O)[C@@H]2F)c2ncnc(N)c12` [Compound I-105, [(2R,3R,4S,5R)-5-(4-amino-3-methoxy-1H-pyrazolo[3,4-d]pyrimidin-1-yl)-4-fluoro-3-hydroxytetrahydrofuran-2-yl]methyl Sulfamate], the IC50 lay within 100 to 500 nM and the inhibition at 0.123 µM came out at 42%.

In the case of `CCSc1nn([C@H]2C[C@H](O)[C@H](COS(N)(=O)=O)O2)c2ncnc(N)c12` [Compound I-213, {(2S,3S,5R)-5-[4-amino-3-(ethylsulfanyl)-1H-pyrazolo[3,4-d]pyrimidin-1-yl]-3-hydroxytetrahydrofuran-2-yl}methyl sulfamate], the IC50 lay within 100 to 500 nM and the inhibition at 0.111 µM came out at 46%.

With `Nc1ncnc2c1c(SC1CCC1)nn2[C@H]1C[C@H](O)[C@@H](COS(N)(=O)=O)O1` [Compound I-164, {(2R,3S,5R)-5-[4-amino-3-(cyclobutylsulfanyl)-1H-pyrazolo[3,4-d]pyrimidin-1-yl]-3-hydroxytetrahydrofuran-2-yl}methyl sulfamate], the 50% inhibitory concentration (IC50) fell in the range of 50 to 100 nM and the inhibition at 0.111 µM turned out to be 70%.

As for `Cc1occc1Sc1nn([C@@H]2O[C@H](COS(N)(=O)=O)[C@@H](O)[C@H]2O)c2ncnc(N)c12` [Compound I-81, [(2R,3S,4R,5R)-5-{4-amino-3-[(2-methyl-3-furyl)sulfanyl]-1H-pyrazolo[3,4-d]pyrimidin-1-yl}-3,4-dihydroxytetrahydrofuran-2-yl]methyl sulfamate], the IC50 is 50 to 100 nM and the inhibition at 0.123 µM amounted to 69%.
